Results from patent US20240091366A1, “NOVEL ACID-SENSITIVE APTAMER TRIPTOLIDE CONJUGATE AND APPLICATIONS” (priority 2022, published 2024).
Several values for one entry are separate records, joined by “and”; a condition that tells them apart may be missing. Identical values can stand only once.

Assays:
[1] = MTT assay, cytotoxicity on normal cells; type: cell-based, human; settings: 48 h
Description: (§1) The same materials as those in Part II above are not repeated here, in addition to the following: human normal hepatocytes LO2, human embryonic kidney cells HEK293 were purchased from the Shanghai Cell Bank of the Chinese Academy of Sciences and preserved in our laboratory.
(§2) Take the […] LO2 and HEK293 cell lines from the liquid nitrogen tank, place them in a 37° C. water bath, wait for the frozen cells to melt into cell suspension, centrifuge the cells at 1000 r/min for 3 min, discard the supernatant, add 1 ml of fresh complete medium containing 10% fetal bovine serum and 1% double antibody to mix the cells, then add 5 ml of medium, gently and repeatedly blowing the cells with a pipette gun to make them mix well. Then add 5 ml of medium, blow the cells gently and repeatedly with a pipette gun to mix them well, and finally transfer the cell suspension to a […] and label the cell name, cell number, date of resuscitation and the operator's name, and place it in a cell culture incubator for cultivation. (HEK293 cell line was cultured with DMEM medium, LO2 cell line was cultured with RPMI1640 medium)
(§3) Take LO2 and HEK293 cells with good growth status, remove the medium, add 1 ml of sterile PBS to wash, add 1.5 ml of trypsin to digest the cells, about 2 min later the cells become round and fall off, add 1.5 ml of medium to terminate the digestion, transfer it to centrifugal tube, centrifuge at 1000 r/min for 3 min, discard the supernatant, add 1 ml of fresh medium to resuspend, then add fresh medium for 1:3 distribution to other culture dishes, and label the date of transmission and the number of generations. Place in the cell culture incubator for cultivation.
(§4) Take LO2 and HEK293 cells with good growth status, by the same operation as the cell passaging experiment, after cell resuspension, cell counting with hemocyte counting plate, with 3000 cells/well, plant in 96-well plate, after 24 h of cell culture, remove the original medium, add medium containing different concentrations of drugs and continue to cultivate for 48 hours. After 24 h of cell culture, the original medium was removed and the medium containing different concentrations of drugs was added to continue the culture for 48 hours. […] The above steps were repeated three times.

[2] = tested on: human embryonic kidney cells HEK293; test: MTT assay, cytotoxicity on normal cells; type: cell-based
Description: as §1, §2, §3, §4

[3] = tested on: human normal hepatocytes LO2; test: MTT assay, cytotoxicity on normal cells; type: cell-based
Description: as §1, §2, §3, §4

[4] = background art; cited from earlier work
tumor cells = settings: background art; cited from earlier work
[5] = HEK293, 6.3 nM, 48 h, samples 1-3, 0.0063 µM
[6] = HEK293, 12.5 nM, 48 h, samples 1-3, 0.0125 µM
[7] = HEK293, 25.0 nM, 48 h, samples 1-3, 0.025 µM
[8] = HEK293, 50.0 nM, 48 h, samples 1-3, 0.05 µM
[9] = HEK293, 100.0 nM, 48 h, samples 1-3, 0.1 µM
[10] = HEK293, 200.0 nM, 48 h, samples 1-3, 0.2 µM
[11] = LO2, 6.3 nM, 48 h, samples 1-3, 0.0063 µM
[12] = LO2, 12.5 nM, 48 h, samples 1-3, 0.0125 µM
[13] = LO2, 25.0 nM, 48 h, samples 1-3, 0.025 µM
[14] = LO2, 50.0 nM, 48 h, samples 1-3, 0.05 µM
[15] = LO2, 100.0 nM, 48 h, samples 1-3, 0.1 µM
[16] = LO2, 200.0 nM, 48 h, samples 1-3, 0.2 µM

Row | Compound | cell proliferation inhibition rate [2, 5] | cell proliferation inhibition rate [2, 6] | cell proliferation inhibition rate [2, 7] | cell proliferation inhibition rate [2, 8] | cell proliferation inhibition rate [2, 9] | cell proliferation inhibition rate [2, 10] | cell proliferation inhibition rate [3, 11] | cell proliferation inhibition rate [3, 12] | cell proliferation inhibition rate [3, 13] | cell proliferation inhibition rate [3, 14] | cell proliferation inhibition rate [3, 15] | cell proliferation inhibition rate [3, 16] | other results
1 | CC(C)[C@]12O[C@H]1[C@@H]1O[C@]13[C@]1(O[C@H]1C[C@H]1C4=C(CC[C@@]13C)C(=O)OC4)[C@@H]2O [TP, Triptolide] | 53.1149 and 51.3265 | 70.4830 and 71.1686 | 73.0686 and 75.7495 | 81.0372 | 94.3972 and 99.2908 | 95.3901 and 100.6383 | 40.8401 and 42.6158 | 59.2076 and 65.5783 | 73.3084 and 73.3954 | 87.4474 and 84.6990 | 97.7552 and 82.0308 | 99.8060 and 96.6312 | IC50 at 48 h ([1]; human, LO2 normal hepatocyte cells, normal hepatocytes LO2, MTT): 9.01 ± 0.25 nM; IC50 at 48 h ([1]; normal human embryonic kidney cells HEK293, MTT): 5.98 ± 0.21 nM; cell proliferation inhibition rate ([2]; HEK293, 3.1 nM, 48 h, samples 1-3, 0.0031 µM): 30.4489 and 32.7054; inhibition at 0.0031 µM ([2]; Homo sapiens, HEK293, 48 h, HEK293, 3.1 nM, 48 h, samples 1-3, read-out: cell proliferation inhibition rate): 35.1%; inhibition at 0.0063 µM ([2]; Homo sapiens, HEK293, 48 h, HEK293, 6.3 nM, 48 h, samples 1-3, read-out: cell proliferation inhibition rate): 59.9%; inhibition at 0.0125 µM ([2]; Homo sapiens, HEK293, 48 h, HEK293, 12.5 nM, 48 h, samples 1-3, read-out: cell proliferation inhibition rate): 69.3%; inhibition at 0.025 µM ([2]; Homo sapiens, HEK293, 48 h, HEK293, 25.0 nM, 48 h, samples 1-3, read-out: cell proliferation inhibition rate): 79.5%; inhibition at 0.05 µM ([2]; Homo sapiens, HEK293, 48 h, HEK293, 50.0 nM, 48 h, samples 1-3, read-out: cell proliferation inhibition rate): 89.5%; inhibition at 0.1 µM ([2]; Homo sapiens, HEK293, 48 h, HEK293, 100.0 nM, 48 h, samples 1-3, read-out: cell proliferation inhibition rate): 99.9%; inhibition at 0.2 µM ([2]; Homo sapiens, HEK293, 48 h, HEK293, 200.0 nM, 48 h, samples 1-3, read-out: cell proliferation inhibition rate): 98.3%; inhibition at 0.0031 µM ([3]; Homo sapiens, Hepatocyte, 48 h, LO2, 3.1 nM, 48 h, samples 1-3, read-out: cell proliferation inhibition rate): 21.4%; inhibition at 0.0063 µM ([3]; Homo sapiens, Hepatocyte, 48 h, LO2, 6.3 nM, 48 h, samples 1-3, read-out: cell proliferation inhibition rate): 32%; inhibition at 0.0125 µM ([3]; Homo sapiens, Hepatocyte, 48 h, LO2, 12.5 nM, 48 h, samples 1-3, read-out: cell proliferation inhibition rate): 66.4%; inhibition at 0.025 µM ([3]; Homo sapiens, Hepatocyte, 48 h, LO2, 25.0 nM, 48 h, samples 1-3, read-out: cell proliferation inhibition rate): 74.1%; inhibition at 0.05 µM ([3]; Homo sapiens, Hepatocyte, 48 h, LO2, 50.0 nM, 48 h, samples 1-3, read-out: cell proliferation inhibition rate): 88.7%; inhibition at 0.1 µM ([3]; Homo sapiens, Hepatocyte, 48 h, LO2, 100.0 nM, 48 h, samples 1-3, read-out: cell proliferation inhibition rate): 96.3%; inhibition at 0.2 µM ([3]; Homo sapiens, Hepatocyte, 48 h, LO2, 200.0 nM, 48 h, samples 1-3, read-out: cell proliferation inhibition rate): 94%; cell proliferation inhibition rate ([3]; LO2, 3.1 nM, 48 h, samples 1-3, 0.0031 µM): 23.3551 and 17.9111; solubility in water [4]: insoluble in water; concentration effectively inhibiting the proliferation of tumor cells (tumor cells): 2 to 10 ng/mL
2 | AS1411: nucleolin aptamer, single-stranded oligonucleotide, SEQ ID NO: 1 GGTGGTGGTGGTTGTGGTGGTGGTGG | 1.4844 and 1.0633 and 2.0955 | 2.3262 and 2.9846 and 3.9285 | 4.6088 and 4.6251 and 5.5956 | 5.9341 and 4.5183 and 7.0200 | 9.5603 and 9.9858 and 6.6667 | 13.0496 and 11.5603 and 7.0200 | 2.1198 and 1.5844 and 2.2503 | 3.1924 and 2.7446 and 2.0042 | 4.5962 and 5.2695 and 5.1506 | 7.3070 and 6.4174 and 7.0396 | 7.6842 and 6.8369 and 7.5344 | 8.3084 and 8.0987 and 13.5426 | inhibitory effect on normal cells ([2]; HEK293): no significant inhibitory effect; inhibitory effect on normal cells ([3]; LO2): no significant inhibitory effect
